Tests used:
[1] = tested on: Nucleic Acid; assay: The compound was evaluated as substrate for DNA replicating enzyme, AmpliTaq FS DNA polymerase at a concentration of 100 uM; Termination; type: nucleic-acid assay
[2] = tested on: Nucleic Acid; assay: The compound was evaluated as substrate for DNA replicating enzyme, Bst DNA polymerase; No incorporation; type: nucleic-acid assay
[3] = tested on: Nucleic Acid; assay: The compound was evaluated as substrate for DNA replicating enzyme, rTth DNA polymerase; No incorporation; type: nucleic-acid assay
[4] = target: DNA polymerase I, thermostable (Thermus aquaticus) (UniProt P19821); assay: The compound was evaluated as substrate for DNA replicating enzyme, Taq DNA polymerase at a concentration of 100 uM; Termination
[5] = tested on: HIV-1 reverse transcriptase (Human immunodeficiency virus 1); assay: The compound was evaluated as substrate for DNA replicating enzyme, HIV-1 RT at a concentration of 1 mM; Not assayed
[6] = target: DNA polymerase I, thermostable (Thermus aquaticus) (UniProt P19821); assay: The compound was evaluated as substrate for DNA replicating enzyme, Taq DNA polymerase at a concentration of 1 mM; Termination
[7] = tested on: Nucleic Acid; assay: The compound was evaluated as substrate for DNA replicating enzyme, AmpliTaq DNA polymerase; No incorporation; type: nucleic-acid assay
[8] = tested on: HIV-1 reverse transcriptase (Human immunodeficiency virus 1); assay: The compound was evaluated as substrate for DNA replicating enzyme, HIV-1 RT at a concentration of 1 mM; Termination
[9] = tested on: Nucleic Acid; assay: The compound was evaluated as substrate for DNA replicating enzyme, AmpliTaq FS DNA polymerase at a concentration of 1 mM; Termination; type: nucleic-acid assay

Measured: Activity

Chain of DNA polymerase I, thermostable (Thermus aquaticus) (P19821 whole entry): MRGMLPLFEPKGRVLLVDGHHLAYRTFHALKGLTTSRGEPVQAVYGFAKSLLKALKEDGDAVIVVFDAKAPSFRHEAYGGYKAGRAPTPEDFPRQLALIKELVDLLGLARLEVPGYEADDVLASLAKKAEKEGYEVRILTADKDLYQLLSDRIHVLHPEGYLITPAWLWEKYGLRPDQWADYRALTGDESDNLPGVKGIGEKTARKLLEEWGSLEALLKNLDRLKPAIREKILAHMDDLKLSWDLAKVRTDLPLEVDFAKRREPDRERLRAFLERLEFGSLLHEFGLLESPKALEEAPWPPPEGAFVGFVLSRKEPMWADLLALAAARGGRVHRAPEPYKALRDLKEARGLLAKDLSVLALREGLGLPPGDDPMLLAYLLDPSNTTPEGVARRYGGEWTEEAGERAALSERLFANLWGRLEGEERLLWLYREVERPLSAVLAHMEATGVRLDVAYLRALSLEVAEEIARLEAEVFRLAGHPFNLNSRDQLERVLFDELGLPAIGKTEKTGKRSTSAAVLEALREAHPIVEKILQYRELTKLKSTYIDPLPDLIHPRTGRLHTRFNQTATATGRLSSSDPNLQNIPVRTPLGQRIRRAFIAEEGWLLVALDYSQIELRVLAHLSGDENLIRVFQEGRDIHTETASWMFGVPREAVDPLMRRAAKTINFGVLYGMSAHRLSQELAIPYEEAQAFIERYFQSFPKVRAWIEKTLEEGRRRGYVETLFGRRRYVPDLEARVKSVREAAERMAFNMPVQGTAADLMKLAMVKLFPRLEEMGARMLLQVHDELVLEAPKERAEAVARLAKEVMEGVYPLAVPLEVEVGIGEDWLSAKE

CN(CCOP(=O)(O)OP(=O)(O)OP(=O)(O)O)C(=O)Cn1cnc2c(N)ncnc21
inactive: [1] No incorporation | [2] No incorporation | [3] No incorporation | [4] No incorporation | [5] No incorporation

Cc1cn(CC(=O)N(C)CCOP(=O)(O)OP(=O)(O)OP(=O)(O)O)c(=O)[nH]c1=O
inactive: [6] No incorporation | [7] No incorporation | [2] No incorporation | [3] No incorporation | [8] No incorporation | [9] No incorporation
